# Source: ChEMBL document CHEMBL5727951, “Substituted benzamides and methods of use thereof” (2020)
# Assay: Tritiated Sulfonamide Binding to Membranes: isolated from cells that heterologously express hNav1.7 and the β1 subunit Preparation of membranes containing recombinantly expressed sodium channels: Frozen recombinant cell pellets were thawed on ice and diluted to 4 times the cell pellet weight with ice cold 50 mM Tris HCl, pH 7.4 buffer. The cell suspensions were homogenized on ice using a motorized glass dounce homogeniser. Homogenates were further diluted 8.4 times with ice cold 50 mM Tris HCl, pH 7.4 buffer and then centrifuged at 200×g at 4° C. for 15 min. The supernatants were collected and centrifuged at 10000×g at 4° C. for 50 min. The pellets were then re-suspended in 100 mM NaCl, 20 mM Tris HCl, pH 7.4 buffer containing 1% v/v protease inhibitors (Calbiochem) and re-homogenized on ice. The homogenized membranes were then processed through a syringe equipped with a 26 gauge needle. Protein concentrations were determined by Bradford Assay and the membranes were stored at −80° C.Radioligand Binding Studies:Saturation experiments. A representative compound of formula (I) having a methyl group was tritiated. Three tritiums were incorporated in place of methyl hydrogens to generate [3H]compound. Binding of this radioligand was preformed in 5 mL borosilicate glass test tubes at room temperature. Binding was initiated by adding membranes to increasing concentrations of [3H]compound in 100 mM NaCl, 20 mM Tris HCl, pH 7.4 buffer containing 0.01% w/v bovine serum albumin (BSA) for 18 h. Non-specific binding was determined in the presence of 1 μM unlabelled compound. After 18 h, the reactants were filtered through GF/C glass fiber filters presoaked in 0.5% w/v polyethylene imine. Filters were washed with 15 mL ice cold 100 mM NaCl, 20 mM Tris HCl, pH7.4 buffer containing 0.25% BSA to separate bound from free ligand. [3H]compound bound to filters was quantified by liquid scintillation counting.Competitive Binding Experiments:Binding reactions were preformed in 96-well polypropylene plates at room temperature for 18 h. In 360 μL, membranes were incubated with 100 pM [3H]compound and increasing concentrations of Test Compound. Non-specific binding was defined in the presence of 1 μM unlabelled compound. Reactions were transferred and filtered through 96-well glass fiber/C filter plates presoaked with 0.5% polyethylene imine. The filtered reactions were washed 5 times with 200 μL ice cold buffer containing 0.25% BSA. Bound radioactivity was determined by liquid scintillation counting.Data Analysis: For saturation experiments, non-specific binding was subtracted from total binding to provide specific binding and these values were recalculated in terms of pmol ligand bound per mg protein. Saturation curves were constructed and dissociation constants were calculated using the single site ligand binding model: Beq=(Bmax*X)/(X+Kd), where Beq is the amount of ligand bound at equilibrium, Bmax is the maximum receptor density, Kd is the dissociation constant for the ligand, and X is the free ligand concentration. For competition studies percent inhibition was determined and IC50 values were calculated using a 4 parameter logistic model (% inhibition=(A+((B−A)/(1+((x/C)^D)))) using XLfit, where A and B are the maximal and minimum inhibition respectively, C is the IC50 concentration and D is the (Hill) slope.
row,SMILES,IC50 [nM]
1,N=S(=O)(NC(=O)c1cc(Cl)c(Oc2cnc(OCC(F)(F)F)c(Cl)c2)cc1F)C1CC1 (centres undefined),23.6
2,N=S(=O)(NC(=O)c1cc(C2CC2)c(OCC2(F)CCN(Cc3cc(C(F)(F)F)cc(Cl)c3F)CC2)cc1F)C1CC1 (centres undefined),182
3,N=S(=O)(NC(=O)c1cc(Cl)c(Oc2cnc(OCC(F)(F)C(F)F)c(Cl)c2)cc1F)N1CCC1 (centres undefined),159
4,N=S(=O)(NC(=O)c1cc(C2CC2)c(OCC23CC4CC(CC(C4)C2)C3)cc1F)N1CCC1 (centres undefined),80.9
5,COc1cc(C(=O)NS(=N)(=O)C2CC2)c(F)cc1OCC12CC3CC(CC(C3)C1)C2 (centres undefined),210
6,C[C@@H](c1cc(Cl)cc(Cl)c1)N1CCC(COc2ccc(C(=O)NS(=N)(=O)C3CC3)cc2C2CC2)CC1 (some centres undefined),616
7,N=S(=O)(NC(=O)c1cc(C2CC2)c(COc2cc(F)cc(C(F)(F)F)c2)cc1F)C1CC1 (centres undefined),14.2
8,C[C@@H](c1cc(Cl)cc(Cl)c1)N1CCC(COc2cc(F)c(C(=O)NS(=N)(=O)C3CC3)cc2C2CC2)CC1 (some centres undefined),92.5
9,CC(C)Oc1ncc(Oc2cc(F)c(C(=O)NS(=N)(=O)C3CC3)cc2Cl)cc1Cl (centres undefined),18.1
10,N=S(=O)(NC(=O)c1cc(C2CC2)c(O[C@@H]2CCCN(Cc3c(Cl)cccc3Cl)C2)cc1F)C1CC1 (some centres undefined),2290
11,N=S(=O)(NC(=O)c1cc(Cl)c(Oc2cnc(OCC(F)(F)C(F)F)c(Cl)c2)cc1F)C1CC1 (centres undefined),23.8
12,N=S(=O)(NC(=O)c1cc(C2CC2)c(COc2cc(Cl)cc(OC(F)(F)F)c2)cc1F)C1CC1 (centres undefined),8.67
13,COc1ncccc1-c1cc(C(=O)NS(=N)(=O)C2CC2)c(F)cc1Oc1cnc(OC(C)C)c(Cl)c1 (centres undefined),19.8
14,N=S(=O)(NC(=O)c1cc(F)c(Oc2ccc(OC(F)(F)F)c(Cl)c2)cc1F)C1CC1 (centres undefined),238
